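Results reflect a 48-hour exposure of cells in 96-well plates to compound at five concentrations. TGI marks complete inhibition of growth.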
Legend:
Assay in all cases: NCI-60 cell line screen, 48 h
[1] = tested on: HL-60(TB) leukemia
[2] = tested on: TK-10 renal
[3] = tested on: RXF 393 renal
[4] = tested on: M14 melanoma
[5] = tested on: U251 CNS
[6] = tested on: T-47D breast
[7] = tested on: UACC-62 melanoma
[8] = tested on: UACC-257 melanoma
[9] = tested on: MOLT-4 leukemia
[10] = tested on: MDA-MB-435
[11] = tested on: SF-268 CNS
[12] = tested on: OVCAR-4 ovarian
[13] = tested on: SN12C renal
[14] = tested on: EKVX NSCLC
[15] = tested on: SW-620 colon
[16] = tested on: MDA-MB-231 breast
[17] = tested on: COLO 205 colon
[18] = tested on: 786-0 renal
[19] = tested on: SF-539 CNS
[20] = tested on: SNB-19 CNS
[21] = tested on: HCC-2998 colon
[22] = tested on: CAKI-1 renal
[23] = tested on: NCI-H23 lung
[24] = tested on: A498 renal
[25] = tested on: SK-OV-3 ovarian
[26] = tested on: NCI-H522 lung
[27] = tested on: A549 NSCLC
[28] = tested on: SK-MEL-2 melanoma
[29] = tested on: HT29 colon
[30] = tested on: PC-3 prostate
[31] = tested on: HS 578T breast
[32] = tested on: OVCAR-5 ovarian
[33] = tested on: HOP-62 NSCLC
[34] = tested on: RPMI-8226 leukemia
[35] = tested on: SK-MEL-28 melanoma
[36] = tested on: IGROV1 ovarian
[37] = tested on: NCI/ADR-RES ovarian
[38] = tested on: KM12 colon
[39] = tested on: LOX IMVI melanoma
[40] = tested on: OVCAR-8 ovarian
[41] = tested on: NCI-H460 lung
[42] = tested on: HCT-116 colon
[43] = tested on: DU-145 prostate
[44] = tested on: SNB-75 CNS
[45] = tested on: HCT-15 colon
[46] = tested on: MCF7 breast
[47] = tested on: MALME-3M melanoma
[48] = tested on: NCI-H226 lung
[49] = tested on: CCRF-CEM leukemia
[50] = tested on: SF-295 CNS
[51] = tested on: OVCAR-3 ovarian
[52] = tested on: ACHN renal
[53] = tested on: BT-549 breast
[54] = tested on: K-562 leukemia

In the case of `O=CN1CCN(C(=O)c2ccc(Cl)c(Cl)c2)C1=S`, the TGI [1] is reported as 45.7 µM, the TGI [2] is reported as 30.1 µM and the TGI [3] is reported as 35 µM. For the same molecule, the TGI [4] was 31.4 µM, the TGI [5] was 28 µM and the TGI [6] was 58 µM. The TGI [7] was 30.4 µM, the TGI [8] was 31.7 µM and the TGI [9] was 53.8 µM. For the same molecule, the TGI [10] was 31.8 µM, the TGI [11] was 39.3 µM and the TGI [12] was 33.6 µM. For the same molecule, the TGI [13] was 27.8 µM, the TGI [14] was 31.7 µM and the TGI [15] was 42.1 µM. For the same molecule, the TGI [16] was 30.8 µM, the TGI [17] was 37.8 µM and the TGI [18] was 17.6 µM. It also gave a TGI [19] of 37 µM, a TGI [20] of 31.7 µM and a TGI [21] of 32.7 µM. It also gave a TGI [22] of 28.1 µM, a TGI [23] of 41 µM and a TGI [24] of 29.8 µM. It also gave a TGI [25] of 32.9 µM, a TGI [26] of 28.7 µM and a TGI [27] of 35 µM. It also gave a TGI [28] of 30.6 µM, a TGI [29] of 38.4 µM and a TGI [30] of 31.9 µM. For the same molecule, the TGI [31] was > 100 µM, the TGI [32] was 32.4 µM and the TGI [33] was 32.9 µM. It also gave a TGI [34] of 7.74 µM, a TGI [35] of 38.3 µM and a TGI [36] of 30.9 µM. For the same molecule, the TGI [37] was > 100 µM, the TGI [38] was 30.3 µM and the TGI [39] was 25.9 µM. It also gave a TGI [40] of 29.4 µM, a TGI [41] of 36.2 µM and a TGI [42] of 30.1 µM. The TGI [43] was 30.9 µM, the TGI [44] was 32.3 µM and the TGI [45] was 43 µM. The TGI [46] was 25 µM, the TGI [47] was 39.1 µM and the TGI [48] was 39.8 µM. The TGI [49] was 24.2 µM, the TGI [50] was 34.4 µM and the TGI [51] was 28.3 µM. For the same molecule, the TGI [52] was 31.6 µM, the TGI [53] was 33.7 µM and the TGI [54] was > 100 µM.
